According to publication PMC10989504 (RSC Chemical Biology, 2024):
Blank lines part the entries; values can stand above or below the molecule they belong to.

Tests used:
ALKBH5 [1] = biological target: T1, ALKBH5 (Homo sapiens, UniProt Q6P6C2); experiment: FRET-based m6A detection assay, ALKBH5; settings: preincubation for various durations, in words
AML and GBM cells = experiment: Viability of AML and GBM cells, control compound; settings: 72 h, MTT/CCK8, in words
papain = biological target: T2, papain (Carica papaya, UniProt P00784); experiment: Papain inhibition; assay type: biochemical; settings: TD19 at 10 μM; E64 and IAA positive controls
T2 sequence (P00784 134-345): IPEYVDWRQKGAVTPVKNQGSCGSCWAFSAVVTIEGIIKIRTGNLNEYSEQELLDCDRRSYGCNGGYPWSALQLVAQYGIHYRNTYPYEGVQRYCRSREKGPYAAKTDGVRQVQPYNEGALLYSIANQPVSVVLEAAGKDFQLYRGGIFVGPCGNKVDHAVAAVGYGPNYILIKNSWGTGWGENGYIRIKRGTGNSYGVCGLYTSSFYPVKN

ALKBH5 [2] = biological target: T1, ALKBH5; experiment: PAGE-based demethylation assay, ALKBH5; assay type: biochemical; settings: compound at 50 μM
FTO = FTO (Homo sapiens, UniProt Q9C0B1); experiment: PAGE-based demethylation assay, FTO; assay type: biochemical; settings: compound at 50 μM
ALKBH5 C100SC267S = ALKBH5 C100SC267S (human, UniProt Q6P6C2 66-292, C100S;C267S); experiment: pull-down
ALKBH5 C100SC267S, sequence (Q6P6C2 66-292 C100S/C267S): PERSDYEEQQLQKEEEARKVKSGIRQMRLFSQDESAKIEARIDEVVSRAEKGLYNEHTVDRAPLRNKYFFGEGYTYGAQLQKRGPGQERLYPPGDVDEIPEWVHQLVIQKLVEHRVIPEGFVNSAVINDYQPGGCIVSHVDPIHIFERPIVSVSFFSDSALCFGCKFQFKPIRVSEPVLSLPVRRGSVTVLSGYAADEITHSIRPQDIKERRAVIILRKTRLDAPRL

T1 sequence (Q6P6C2 66-292 limits assumed): as the sequence (Q6P6C2 66-292 C100S/C267S) above, with S35C, S202C counted along it
FTO, sequence (Q9C0B1 32-505 limits assumed): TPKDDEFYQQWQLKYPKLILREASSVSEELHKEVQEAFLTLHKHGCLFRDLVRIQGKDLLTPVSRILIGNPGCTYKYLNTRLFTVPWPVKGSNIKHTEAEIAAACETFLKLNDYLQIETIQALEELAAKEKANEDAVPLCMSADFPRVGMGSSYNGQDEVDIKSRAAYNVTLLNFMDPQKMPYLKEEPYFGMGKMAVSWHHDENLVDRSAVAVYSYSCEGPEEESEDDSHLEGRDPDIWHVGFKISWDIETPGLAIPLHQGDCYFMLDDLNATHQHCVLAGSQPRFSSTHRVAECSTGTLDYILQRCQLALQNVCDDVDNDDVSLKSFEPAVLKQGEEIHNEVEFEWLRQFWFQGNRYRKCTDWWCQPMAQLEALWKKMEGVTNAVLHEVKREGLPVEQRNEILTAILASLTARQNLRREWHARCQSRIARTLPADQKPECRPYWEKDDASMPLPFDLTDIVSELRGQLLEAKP

Time dependence and reversibility of ALKBH5 inhibition (ALKBH5 [1]): time-independent and reversible
Molecule: O=C(O)c1cc(O)c2c(c1)C(=O)c1cccc(O)c1C2=O [rhein]

Molecule: Cc1noc(C)c1-c1cc(Cl)c(Nc2ccccc2C(=O)NO)c(Cl)c1 [FB23-2]
Antiproliferative activity compared with TD19 (AML and GBM cells): displayed better activities than TD19

Molecule: CC(C)C[C@H](NC(=O)[C@H]1O[C@@H]1C(=O)O)C(=O)NCCCCN=C(N)N (relative stereo) [E64, L-trans-epoxysuccinyl-leucylamido(4-guanidino)butane]
Inhibition of papain (papain): significant inhibition

Molecule: NC(=O)CI [IAA, iodoacetamide]
Inhibition of ALKBH5 demethylation of dm6A-modified substrate (ALKBH5 [2]): did not inhibit
Inhibition of FTO demethylation of dm6A-modified substrate (FTO): did not inhibit
Inhibition of papain (papain): significant inhibition

Inhibition of ALKBH5 demethylation of dm6A-modified substrate (ALKBH5 [2]): inhibited the demethylation
Molecule: CCN1C(=O)C=CC1=O [NEM, N-ethylmaleimide]

B1: 5'-biotin-TEG dm6A DNA (ssDNA)
DNA: TTTTTTGGACT
modifications: N6-methyl-deoxyadenosine at position 9
binding result (ALKBH5 C100SC267S): binds
